Assays:
[1] = tested on: amidohydrolase (enzyme of this invention); test: Substrate specificity for N-acyl-amino acids (deacylation, standard assay); format: biochemical, Streptomyces fulvoviridis A933; settings: N-chloroacetyl-L-phenylalanine as 100
Description: The relative activity in Table 1 refers to N-chloroacetyl-L-phenylalanine as 100.
(§1) Ten microliters of 0.2 M piperazine-N,N'-bis(2-ethanesulfonic acid) [=PIPES] buffer, pH 7.3, and 10 μl of 100 mM N-chloroacetyl-L-phenylalanine (adjusted to pH 6-7 with NaOH) are dissolved in 20 μl of water. After 10 μl of an enzyme solution (30-50 μg/ml) is added, the mixture is incubated at 37° C. for 15 minutes. Then, 50 μl of 50% acetic acid is added to stop the enzymatic reaction. The amount of L-phenylalanine produced from the substrate in the reaction solution is determined by the Yemm-Cocking ninhydrin colorimetric method (E. W. Yemm & E. C. Cocking: Analyst, Vol. 80, page 209, 1955) or with an amino acid automatic analyzer (Model 835-50, Hitachi Limited).

[2] = tested on: amidohydrolase (enzyme of this invention); test: Effects of metal ions, chelating agents and -SH inhibitors on enzyme activity; format: biochemical, Streptomyces fulvoviridis A933
Description: as §1
The relative activity in Table 2 refers to the activity of the enzyme in the absence of such chemical as 100.

[3] = tested on: amidohydrolase (enzyme of this invention); test: Experiment A: action of the enzyme on PS-5 and OA-6129A, HVPE bioautography and pantothenate bioassay; format: biochemical, Streptomyces fulvoviridis A933
Description: A mixture (50 μl) consisting of 10 μl of 0.2 M potassium phosphate buffer, pH 7.4, 20 μl of an antibiotic PS-5 solution (500 μg/ml) or an antibiotic OA-6129A solution (500 μg/ml), 10 μl of the enzyme solution obtained in Example 1, and 10 μl of water was incubated at 37° C. for 3 hours.
As a control, the mixture minus the enzyme solution was allowed to react under the same conditions.
3 μl of each of the resulting reaction solutions was spotted on Watmann No. 1 filter paper, and subjected to electrophoresis for 50 minutes at 1500 V/30 cm with Veronal buffer, pH 8.6. After electrophoresis, the products were bioautographed with Comamonas terrigena B-996 as assay organism.

[4] = tested on: cell-free homogenate of Streptomyces cattleya (acylase); test: Example 2: action of cell-free homogenate on PS-5 and OA-6129A; format: biochemical, Streptomyces cattleya (NRRL 8057)
Description: Glucose (2.5 g), 1 g of corn steep liquor, 0.5 g of Pharmamedia® (a product of Traders Oil Mill Company), 0.5 g of yeast extract and 0.3 g of CaCO3 were dissolved in 100 ml of tap water, and the pH of the suspension was adjusted to 7.0. Then, 50 ml portions of the suspension were distributed in 250 ml Erlenmeyer flasks, and sterilized at 120° C. for 15 minutes. After cooling Streptomyces cattleya (NRRL 8057) was inoculated, and the flasks were cultivated at 28° C. for 90 hours with shaking.
Mycelia were collected by centrifugation and treated by the same procedure as in Example 1 to give 20 ml of a cell-free homogenate. With this fresh homogenate, the enzymological properties of Streptomyces cattleya acylase were examined.
A mixture containing 10 μl of 0.2 M potassium phosphate buffer, pH 7.4, 10 μl of an antibiotic PS-5 solution (500 μg/ml) or an antibiotic OA-6129A solution (500 μg/ml), 10 μl of acyl-CoA (5 μmoles/ml) and 20 μl of the cell-free homogenate was incubated at 37° C. for 4 hours. The product was analysed by HVPE in the same manner as in Experiment A.
The control reaction mixtures contained either no cell-free homogenate or no acyl-CoA. Acetyl-CoA and n-propionyl-CoA were used as acyl-CoA.

[5] = tested on: cell-free homogenate of Streptomyces cremeus subsp. auratilis; test: Example 3: action of cell-free homogenate on PS-5 and OA-6129A; format: biochemical; settings: 37° C., 4 hours
Description: Soluble starch (5.2 g), 1.2 g of Essan-Miit, 0.16 g of NaCl, 0.08 g of K2 HPO4 and 0.04 g of MgSO4.7H2 O were dissolved in 80 ml of tap water and 40 ml portions of the suspension were filled in two 250 ml Erlenmeyer flasks. After autoclaving at 120° C. for 15 minutes, Streptomyces cremeus subsp. auratilis was inoculated, and cultivated at 28° C. for 68 hours. Using the same procedure as in Example 1, 20 ml of the cell-free homogenate was obtained. For confirmation of the enzyme activity, the following reactions were studied.
A mixture (50 μl) consisting of 10 μl of 0.2 M potassium phosphate buffer, pH 7.4, 10 μl of an antibiotic PS-5 solution (500 μg/ml) or an antibiotic OA-6129A solution (500 μg/ml), 20 μl of the cell-free homogenate and 10 μl of water was kept at 37° C. for 4 hours. The products were assayed by HVPE in the same way as in Experiment A.
As a control, the above reaction was carried out without the cell-free homogenate.

[6] = tested on: cell-free homogenate of Streptomyces argenteolus; test: Example 4: action of cell-free homogenate on PS-5 and OA-6129A; format: biochemical; settings: tested as in Example 3
Description: Glycerol (4 g), 0.5 g of peptone, 0.2 g of glucose, 0.2 g of soluble starch, 0.5 g of Essan Miit®, 0.5 g of dry yeast, 0.5 g of NaCl and 0.2 g of CaCO3 were dissolved in 100 ml of tap water. Each 25 ml portion of the suspension was distributed in 250 ml Erlenmeyer flasks, and sterilized at 120° C. for 15 minutes. After cooling the culture medium, Streptomyces argenteolus was inoculated and cultivated at 28° C. for 68 hours with shaking. 20 ml of a cell extract was obtained. The same procedure of treatment as in Example 1 yielded 20 ml of a cell-free homogenate which was tested as explained in Example 3.

[7] = tested on: amidohydrolase (enzyme of this invention); test: Experiment C: acyl transfer from acyl-CoA to 6-APA; format: biochemical, Streptomyces fulvoviridis A933; settings: acetyl-CoA or glutaryl-CoA; 37° C., 3 hours
Description: 0.2 M Potassium phosphate buffer, pH 7.4 (10 μl), 10 μl of 6-aminopenicillanic acid (6-APA) (500 μg/ml), 20 μl of acyl-CoA (5 μmoles/ml) and 10 μl of the enzyme preparation from Example 1 were mixed and incubated at 37° C. for 3 hours. The products were analyzed by HVPE in the same way as in Example 2, employing acetic acid buffer, pH 4.5 Acetyl-CoA and glutaryl-CoA were used as acyl-CoA.
The controls were the same reaction mixtures minus enzyme solution and acyl-CoA respectively.

[8] = tested on: amidohydrolase (enzyme of this invention); test: Experiment B: acyl exchange of OA-6129A with acyl-CoA; format: biochemical, Streptomyces fulvoviridis A933; settings: acetyl-, n-propionyl-, n-butyryl- or glutaryl-CoA; 37° C., 3 hours
Description: A mixture consisting of 10 μl of 0.2 M potassium phosphate buffer, pH 7.4, 10 μl of a solution of antibiotic OA-6129A (500 μg/ml), 10 μl of acyl-CoA (5 μmoles/ml), 10 μl of the enzyme preparation from Example 1 and 10 μl of water was allowed to react at 37° C. for 3 hours. The product was assayed by high voltage paper electrophoresis (HVPE) in the same way as in Experiment A.
As controls, the same mixture minus acyl-CoA and the same mixture minus the enzyme solution were incubated under the same conditions as mentioned above.
Acetyl-CoA, n-propionyl-CoA, n-butyryl-CoA and glutaryl-CoA were used as acyl-CoA.

[9] = additive 1 mM, activity without additive as 100, 15 min
[10] = additive 0.1 mM, activity without additive as 100, 15 min

Structure (SMILES) | Relative activity [1] | Relative activity [2, 9] | also measured
CC(=O)N[C@@H](C(=O)O)C(C)C [N--Acetyl-D-valine] | 0 | – | –
[Cl][Cd][Cl] [CdCl2] | – | 10.2 | –
CCC1C(=O)N2C(C(=O)O)=C(SCCNC(C)=O)CC12 (stereo not drawn) [PS-5] | – | – | Deacetylation of the substrate by the enzyme ([3]; 37° C., 3 hours, pH 7.4): did not attack antibiotic PS-5 at all; Susceptibility of the substrate to the cell-free homogenate ([4]; irrespective of the presence of acyl-CoA, 37° C., 4 hours): not susceptible; Deacetylation by the cell-free homogenate [5]: no ability to deacetylate; Deacetylation by the cell-free homogenate [6]: no ability to deacetylate
[Cl][Hg][Cl] [HgCl2] | – | 0 | Relative activity ([2]; additive 0.01 mM, activity without additive as 100, 15 min): 84.5; Relative activity [2, 10]: 6.4
[Cl-].[Cl-].[Co+2] [CoCl2] | – | 82.4 | Relative activity ([2]; additive 0.2 mM, activity without additive as 100, 15 min): 92.3; Relative activity ([2]; additive 2 mM, activity without additive as 100, 15 min): 3.8; Relative activity ([2]; additive 4 mM, activity without additive as 100, 15 min): 0
CC1(C)S[C@@H]2[C@H](N)C(=O)N2[C@H]1C(=O)O [6-APA, 6-aminopenicillanic acid] | – | – | Acyl transfer from acyl-CoA to the amino group [7]: converted to the corresponding acyl-6-APA
[Co+2] [Co^++] | – | – | Effect of the ion on the enzyme (in words) ([2]; known acylases are activated or stabilized by 0.5 to 10 mM): inhibited
CC(=O)N[C@H](C(=O)O)C(C)C [N--Acetyl-L-valine] | 32.4 | – | –
c1cnc2c(c1)ccc1cccnc12 [o-PT, ophenanthroline] | – | 56.4 | –
CC(=O)N[C@H](CC(C)C)C(=O)O [N--Acetyl-D-leucine] | 0 | – | –
[Cl][Pb][Cl] [PbCl2] | – | 58.8 | –
CC(C)C[C@H](NC=O)C(=O)O [N--Formyl-L-leucine] | 16.4 | – | –
O=C(O)c1cc[c]([Hg][Cl])cc1 [p-CMB, pchloromercuribenzoic acid] | – | 0 | –
CC(=O)N[C@H](Cc1ccccc1)C(=O)O [N--Acetyl-D-phenylalanine] | 0 | – | –
CSCC[C@H](NC(C)=O)C(=O)O [N--Acetyl-L-methionine] | 262.1 | – | –
[Cl][Mn][Cl] [MnCl2] | – | 74.3 | –
O=C(CCl)N[C@@H](Cc1ccccc1)C(=O)O [N--Chloroacetyl-L-phenylalanine] | 100 | – | –
CCC1C(=O)N2C(C(=O)O)=C(SCCNC(=O)CCNC(=O)C(O)C(C)(C)CO)CC12 (stereo not drawn) [OA-6129A] | – | – | Depantothenylation of the substrate by the enzyme ([3]; 37° C., 3 hours, pH 7.4): removes the pantotheinyl group; Concentration of pantothenate in the reaction solution ([3]; bioassay with Saccharomyces carlsbergensis (ATCC 9080), enzyme present): 8 µg/mL; Exchange of the pantotheinyl group with the acyl group of acyl-CoA [8]: catalyzes the exchange of the pantotheinyl group; Acyl exchange with acyl-CoA by the cell-free homogenate ([4]; acetyl-CoA present): transform to PS-5; Depantothenylation by the cell-free homogenate ([4]; without acyl-CoA, 37° C., 4 hours): catalyzes the depantothenylation; Depantothenylation by the cell-free homogenate [5]: has the ability to eliminate the pantotheinyl group; Depantothenylation by the cell-free homogenate [6]: does depantothenylate

Structure (SMILES) | Relative activity [1] | Relative activity [2, 9] | also measured
CSCC[C@H](NC=O)C(=O)O [N--Formyl-L-methionine] | 112.7 | – | –
CC(C)C[C@H](NC(=O)CCl)C(=O)O [N--Chloroacetyl-L-leucine] | 348.5 | – | –
CC(=O)N[C@H](C)C(=O)O [N--Acetyl-D-alanine] | 0 | – | –
CC(=O)N[C@@H](CCCCN)C(=O)O [N--α-Acetyl-L-lysine] | 39.8 | – | –
[Cl-].[Cl-].[Zn+2] [ZnCl2] | – | 7.7 | –
CC(C)[C@H](NC(=O)CCl)C(=O)O [N--Chloroacetyl-L-valine] | 351.1 | – | –
O=S(=O)([O-])[O-].[Fe+2] [FeSO4] | – | 53.2 | –
CC(=O)N[C@@H](C)C(=O)O [N--Acetyl-L-alanine] | 163.8 | – | –
CC(=O)N[C@@H](Cc1ccccc1)C(=O)O [N--Acetyl-L-phenylalanine] | 15.3 | – | –
CC(=O)NCC(=O)O [N--Acetyl-glycine] | 23.9 | – | –
[Cl][Cu][Cl] [CuCl2] | – | 0 | Relative activity [2, 10]: 87.5
[Cl-].[Cl-].[Mg+2] [MgCl2] | – | 93.6 | –
O=C(O)CN(CCN(CC(=O)O)CC(=O)O)CC(=O)O [EDTA, ethylenediaminetetracetic acid] | – | – | Relative activity ([2]; pipes buffer, pH 7.3, 15 min, 1000 µM): 95.8
O=S(=O)([O-])[O-].[Ni+2] [NiSO4] | – | 79.4 | –
[Cl][Sn][Cl] [SnCl2] | – | 64.4 | –
CC(=O)N[C@@H](CC(C)C)C(=O)O [N--Acetyl-L-leucine] | 92.8 | – | –
CC(=O)N[C@@H](CCC(=O)O)C(=O)O [N--Acetyl-L-glutamic acid] | 2.7 | – | –
CSCC[C@@H](NC(C)=O)C(=O)O [N--Acetyl-D-methionine] | 0 | – | –

From patent US4438201A, “Amidohydrolase having ability to depantothenylate an antibiotic” (Sanraku-Ocean Co., Ltd., priority 1981, dated 1984)
